The results in this text go back to patent publication US20230157288A1, “PEST CONTROL METHOD, PEST CONTROL AGENT COMPOSITION, AND PEST CONTROL AGENT SET” (priority 2020, published 2023).

Counter-ions that a name gives are not always drawn. Like-named read-outs stand apart in the source and are kept apart here.

Common to all, as to assay type: in vivo
Experiment [1] has as its system Plutella xylostella. As to the kind of experiment: Test for confirming effect on Plutella xylostella (cabbage leaf immersion, insecticidal rate). The conditions noted are these: single chemical. On the procedure:
Test for Confirming Effect on Plutella xylostella
A flowable agent containing the compound A was diluted with water containing RABIDEN® 3S diluted 5000 times to prepare chemical solutions A containing the compound A at twice concentrations described in Table 3.
A preparation containing the compound B or a flowable agent containing the compound B was diluted with water containing RABIDEN 3S diluted 5000 times to prepare chemical solutions B containing the compound B at twice concentrations described in Table 3, respectively.
Cabbage leaves were immersed in a mixed solution obtained by mixing the chemical solution A and the chemical solution B in an equivalent amount for 30 seconds, and these cabbage leaves were placed in a petri dish, and five second-instar Plutella xylostella larvae were released (AB mixture application plot).
(§1) The chemical solution A and the chemical solution B were twice diluted with the water containing RABIDEN 3S diluted 5000 times to obtain a chemical solution A′ and a chemical solution B′.
Cabbage leaves were immersed in the chemical solution A′ for 30 seconds, and these cabbage leaves were placed in another petri dish, and five second-instar Plutella xylostella larvae were released (A single application plot). Cabbage leaves were immersed in the chemical solution B′ for 30 seconds, and these cabbage leaves were placed in another petri dish, and five second-instar Plutella xylostella larvae were released (B single application plot).
Then, these petri dishes were placed in a thermostatic chamber at a temperature of 25° C. and a humidity of 60%. Three days after the larva release, viability determination was performed, and the insecticidal rate was calculated by the following equation. The test was repeated twice.
(§2) Insecticidal rate (%)=(the number of dead insects/the number of tested insects)×100
(§3) To show the degree of a synergistic effect, the “effectiveness expectation” was calculated based on the Colby method. When the effectiveness is higher than the “effectiveness expectation”, it is determined that there is a synergistic effect.
(§4) Expectation of insecticidal rate (%) (E)=X+Y−XY/100
(§5) X: measurement of insecticidal rate in B single application plot (%)
(§6) Y: measurement of insecticidal rate in A single application plot (%)

Experiment [2] concerns Aphis gossypii. As to the kind of experiment: Test for confirming effect on Aphis gossypii (cucumber sprinkling, insecticidal rate). As to the method: Test for confirming effect on Aphis gossypii A flowable agent containing the compound A was diluted with water containing RABIDEN 3S diluted 5000 times to prepare chemical solutions A containing the compound A at twice concentrations described in Table 4.
A preparation containing the compound B or a flowable agent containing the compound B was diluted with water containing RABIDEN 3S diluted 5000 times to prepare chemical solutions B containing the compound B at twice concentrations described in Table 4.
First, 9-cm pots were sown with cucumbers. Aphis gossypii female imagoes were released on the cucumbers 10 days after the sprouting. The borne first-instar larvae were left, and the female imagoes were removed on the next day. A mixed solution obtained by mixing the chemical solution A and the chemical solution B in an equivalent amount was sprinkled on the cucumbers (AB mixture application plot).
as §1
The chemical solution A′ was sprinkled on the cucumbers sown with the first-instar larvae by the same method as in the AB mixture application plot (A single application plot). The chemical solution B′ was sprinkled on the cucumbers sown with the first-instar larvae by the same method as in the AB mixture application plot (B single application plot).
Then, the cucumbers sprinkled with the chemical solutions were placed in a thermostatic chamber at a temperature of 25° C. and a humidity of 60%, the viability of the Aphis gossypii was inspected after 6 days, and the insecticidal rate was calculated by the following equation. The test was repeated twice.
as §2, §3, §4, §5, §6

Experiment [3] has as its system Phyllotreta striolata. The experiment can be described thus: Test for confirming effect on Phyllotreta striolata (bok choy seedling sprinkling, insecticidal rate). As to the method:
Test for Confirming Effect on Phyllotreta striolata
A flowable agent containing the compound A was diluted with water containing RABIDEN 3S diluted 5000 times to prepare chemical solutions A containing the compound A at twice concentrations described in Table 5.
A preparation containing the compound B or a flowable agent containing the compound B was diluted with water containing RABIDEN 3S diluted 5000 times to prepare chemical solutions B containing the compound B at twice concentrations described in Table 5.
A mixed solution obtained by mixing the chemical solution A and the chemical solution B in an equivalent amount was sprinkled on bok choy seedlings (at the seventh true leaf stage) planted in 9-cm pots. After air dry, these bok choy seedlings were placed in plastic cups, and ten Phyllotreta striolata imagoes were released (AB mixture application plot).
as §1
The chemical solution A′ was sprinkled on bok choy seedlings (at the seventh true leaf stage) planted in 9-cm pots. After air dry, these bok choy seedlings were placed in plastic cups, and ten Phyllotreta striolata imagoes were released (A single application plot). The chemical solution B′ was sprinkled on bok choy seedlings (at the seventh true leaf stage) planted in 9-cm pots. After air dry, these bok choy seedlings were placed in plastic cups, and ten Phyllotreta striolata imagoes were released (B single application plot).
Then, the bok choy seedlings sprinkled with the chemical solutions were placed in a thermostatic chamber at a temperature of 25° C. and a humidity of 60%, viability determination was performed 6 days after the insect release, and the insecticidal rate was calculated by the following equation. The test was repeated twice.
Insecticidal rate (%)=(the number of the dead insects/the number of tested insects)×100
as §3, §4, §5, §6

The mark [4] stands for this setting: Plutella xylostella, 0.5 ppm, read-out: Effectiveness Measurement (insecticidal rate).
Where [5] appears, read: Aphis gossypii, 144 h, single chemical, after 6 days, read-out: Effectiveness Measurement (insecticidal rate).
Where [6] appears, read: Phyllotreta striolata, 144 h, single application, Phyllotreta striolata imagoes, 6 days after release, read-out: Effectiveness Measurement (insecticidal rate).
[7] abbreviates: Plutella xylostella, read-out: Effectiveness Measurement (insecticidal rate).
[8] abbreviates: Aphis gossypii, 144 h, single chemical, 0.12 ppm, after 6 days, read-out: Effectiveness Measurement (insecticidal rate).
Setting [9] is: single chemical, 0.12 ppm, after 6 days.
Setting [10] is: Aphis gossypii, 144 h, single chemical, 2 ppm, after 6 days, read-out: Effectiveness Measurement (insecticidal rate).
[11] abbreviates: Phyllotreta striolata, 144 h, single application, 31 ppm, Phyllotreta striolata imagoes, 6 days after release, read-out: Effectiveness Measurement (insecticidal rate).

As for Spinetoram, in experiment [1] (0.0076 ppm), the “Effectiveness Measurement (insecticidal rate)” value (from here on “Effectiveness Measurement”) came to 40%.
On to `CCS(=O)(=O)c1cc(C2CC2)cnc1-c1ncc(C(F)C(F)(C(F)(F)F)C(F)(F)F)n1C` (stereo not shown) [Compound (III)], for which the pest or weed control at 0.5 ppm worked out at 40% in experiment [1] (setting [4]), 31% in experiment [2] (setting [5]) and 20% in experiment [3] (setting [6]).
As for `CNC(=O)c1cc(C#N)cc(C)c1NC(=O)c1cc(Br)nn1-c1ncccc1Cl` [Cyantraniliprole, cyantraniliprole], the pest or weed control at 8 ppm in experiment [1] (setting [7]) is 10%. The pest or weed control at 0.12 ppm in experiment [2] (setting [8]) stood at 50%. Further, the pest or weed control at 0.5 ppm in experiment [3] (setting [6]) was found to be 20%.
As to `CCS(=O)(=O)c1cc(C2CC2)cnc1-c1ncc(C=C(Cl)C(F)(F)F)n1C` [Compound (II)], the pest or weed control at 0.12 ppm in experiment [1] (Plutella xylostella, 0.12 ppm, read-out: Effectiveness Measurement (insecticidal rate)) is 10%; in experiment [2] (setting [8]), 18%. For the same molecule, the “Effectiveness Measurement” value in experiment [1] (0.12 ppm) is listed as 10%; in experiment [2] (setting [9]), 18%. The pest or weed control at 0.5 ppm in experiment [3] (setting [6]) is 20%.
With `COP(=O)(NC(C)=O)SC` (stereo not shown) [Acephate, acephate], the pest or weed control at 31 ppm in experiment [2] (Aphis gossypii, 144 h, read-out: Effectiveness Measurement (insecticidal rate)) was 50%. Further, the pest or weed control at 8 ppm in experiment [3] (Phyllotreta striolata, 144 h, read-out: Effectiveness Measurement (insecticidal rate)) came out at 40%.
Turning to `CCS(=O)(=O)c1cc(C(F)(F)F)cnc1-c1ncc(/C=C(\Cl)C(F)(F)C(F)(F)F)n1C` [Compound (IV)], the pest or weed control at 0.03 ppm in experiment [1] (Plutella xylostella, 0.03 ppm, read-out: Effectiveness Measurement (insecticidal rate)) amounted to 20%. For the same molecule, the pest or weed control at 0.5 ppm in experiment [2] (setting [5]) amounted to 64%; in experiment [3] (setting [6]), 10%.
`CNC(=O)Oc1cccc2c1OC(C)(C)C2` [Carbofuran, carbofuran]: the pest or weed control at 2 ppm in experiment [1] (setting [7]) was found to be 10%; in experiment [2] (setting [10]), 14%. In addition, the pest or weed control at 31 ppm in experiment [3] (setting [11]) worked out at 20%.
For `CCc1ccc(C(=O)NN(C(=O)c2cc(C)cc(C)c2)C(C)(C)C)cc1` [Tebufenozide], the pest or weed control at 31 ppm in experiment [1] (Plutella xylostella, 31 ppm, read-out: Effectiveness Measurement (insecticidal rate)) was 40%.
For the molecule `N#Cc1nn(-c2c(Cl)cc(C(F)(F)F)cc2Cl)c(N)c1[S+]([O-])C(F)(F)F` (stereo not shown) [Fipronil, fipronil], the results for the pest or weed control at 0.5 ppm in experiment [1] (setting [4]) and in experiment [2] (setting [5]) were 40% and 29%, respectively. Besides, in experiment [3] (Phyllotreta striolata, 144 h, single application, 0.12 ppm, Phyllotreta striolata imagoes, 6 days after release, read-out: Effectiveness Measurement (insecticidal rate)), the pest or weed control at 0.12 ppm was 20%.
Consider Abamectin, for which the “Effectiveness Measurement” value in experiment [1] (0.5 ppm) is 40%.
For the molecule `CC1=NNC(=O)N(/N=C/c2cccnc2)C1` [Pymetrozine], the pest or weed control at 0.12 ppm in experiment [2] (setting [8]) stood at 68%.
Regarding `N#CCNC(=O)c1cnccc1C(F)(F)F` [Flonicamid], the “Effectiveness Measurement” value in experiment [2] (setting [9]) came to 21%.
As for `O=C(NC(=O)c1c(F)cccc1F)Nc1cc(Cl)c(F)c(Cl)c1F` [Teflubenzuron], in experiment [1] (setting [4]), the pest or weed control at 0.5 ppm is 40%.
With `CCc1nn(C)c(C(=O)NCc2ccc(Oc3ccc(C)cc3)cc2)c1Cl` [Tolfenpyrad], the pest or weed control at 8 ppm in experiment [1] (setting [7]) was 20%. Also, in experiment [2] (setting [8]), the pest or weed control at 0.12 ppm was 18%.
For `C/C(=N\C#N)N(C)Cc1ccc(Cl)nc1` [Acetamiprid, acetamiprid], the pest or weed control at 8 ppm in experiment [1] (setting [7]) came to 10%; in experiment [3] (Phyllotreta striolata, 144 h, single application, 8 ppm, Phyllotreta striolata imagoes, 6 days after release, read-out: Effectiveness Measurement (insecticidal rate)), 20%. In experiment [2] (setting [8]), the pest or weed control at 0.12 ppm was 40%.
Regarding `N#Cc1ccc(CC(=NNC(=O)Nc2ccc(OC(F)(F)F)cc2)c2cccc(C(F)(F)F)c2)cc1` (mixture of isomers) [Metaflumizone, metaflumizone], the “Effectiveness Measurement” value in experiment [1] (0.5 ppm) was 20%; in experiment [3] (single application, 31 ppm, Phyllotreta striolata imagoes, 6 days after release), 40%.
With `CC(C)N1C(=O)N(c2ccccc2)CS/C1=N\C(C)(C)C` [Buprofezin], the pest or weed control at 31 ppm in experiment [2] (Aphis gossypii, 144 h, single chemical, 31 ppm, after 6 days, read-out: Effectiveness Measurement (insecticidal rate)) came to 33%.
As to `CCOCn1c(-c2ccc(Cl)cc2)c(C#N)c(Br)c1C(F)(F)F` [Chlorfenapyr, chlorfenapyr], the pest or weed control at 2 ppm worked out at 20% in experiment [1] (setting [7]); 6% in experiment [2] (setting [10]); 40% in experiment [3] (Phyllotreta striolata, 144 h, single application, 2 ppm, Phyllotreta striolata imagoes, 6 days after release, read-out: Effectiveness Measurement (insecticidal rate)).
On to `CN(C)C(CSC(N)=O)CSC(N)=O` [Cartap hydrochloride, cartap hydrochloride], for which, in experiment [1] (setting [7]), the pest or weed control at 2 ppm turned out to be 40%. Besides, the pest or weed control at 31 ppm in experiment [3] (setting [11]) is 60%.
For `CON=CNC(=O)c1ccc(C2=NOC(c3cc(Cl)cc(Cl)c3)(C(F)(F)F)C2)cc1C` (stereo not shown) [Fluxametamide, fluxametamide], the “Effectiveness Measurement” value in experiment [1] (0.12 ppm) was determined as 40%; in experiment [2] (single chemical, 2 ppm, after 6 days) it was 60%; in experiment [3] (single application, 2 ppm, Phyllotreta striolata imagoes, 6 days after release), 20%.
As to `Cc1c(COC(=O)[C@@H]2[C@H](/C=C(\Cl)C(F)(F)F)C2(C)C)cccc1-c1ccccc1` (racemic) [Bifenthrin], the pest or weed control at 125 ppm in experiment [1] (Plutella xylostella, 125 ppm, read-out: Effectiveness Measurement (insecticidal rate)) came out at 40%. Moreover, in experiment [2] (Aphis gossypii, 144 h, single chemical, 0.03 ppm, after 6 days, read-out: Effectiveness Measurement (insecticidal rate)), the pest or weed control at 0.03 ppm came out at 42%.
